In PubChem BioAssay (NCI):
“And” between values parts separate entries of the source, which are not always exact repeats. Identical values can stand only once.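 1) Cells in 96-well plates. 2) Compound, 48 h, 5 concentrations. 3) Linear interpolation between surrounding doses. 4) Unreached endpoint = highest concentration. The concentration for 50% growth inhibition is given as GI50. TGI denotes the concentration required for complete inhibition of growth.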

What was measured:
Assay in all cases: NCI-60 cell line screen, 48 h
BT-549 breast = tested on: BT-549 breast
NCI-H522 lung = tested on: NCI-H522 lung
TK-10 renal = tested on: TK-10 renal
SF-295 CNS = tested on: SF-295 CNS
CAKI-1 renal = tested on: CAKI-1 renal
NCI/ADR-RES ovarian = tested on: NCI/ADR-RES ovarian
SK-MEL-28 melanoma = tested on: SK-MEL-28 melanoma
UACC-257 melanoma = tested on: UACC-257 melanoma
CCRF-CEM leukemia = tested on: CCRF-CEM leukemia
IGROV1 ovarian = tested on: IGROV1 ovarian
OVCAR-4 ovarian = tested on: OVCAR-4 ovarian

Structure (SMILES)	TGI (BT-549 breast)	TGI (NCI-H522 lung)	TGI (TK-10 renal)	TGI (SF-295 CNS)	TGI (CAKI-1 renal)	TGI (NCI/ADR-RES ovarian)	TGI (SK-MEL-28 melanoma)	TGI (UACC-257 melanoma)	TGI (CCRF-CEM leukemia)	TGI (IGROV1 ovarian)	TGI (OVCAR-4 ovarian)	GI50 (TK-10 renal)	GI50 (CAKI-1 renal)
COc1ccc2ccccc2c1/C=C/C(=O)c1ccccc1	14.7 µM	14.6 µM	7.45 µM	15.6 µM	15 µM	> 54.8 µM	17.9 µM	16 µM	4.17 µM	16.2 µM	9.4 µM	–	–
C(=Nc1ccc(-c2nc3ccccc3[nH]2)cc1)c1cccs1	86.4 µM	> 100 µM	> 100 µM	> 100 µM	> 100 µM	> 100 µM	> 100 µM	> 100 µM	> 100 µM	> 100 µM	> 100 µM	–	–
CC1=NNC(N)=N/C1=C\C(Sc1ccc(Cl)cc1)c1ccc([N+](=O)[O-])cc1 (stereo not drawn)	> 100 µM	> 100 µM	> 100 µM	> 100 µM	> 100 µM	> 100 µM	> 100 µM	> 100 µM	> 100 µM	> 100 µM	> 100 µM	–	–
COc1cc(/C=C2/C[C@H]3[C@@H]4CC=C5C[C@@H](O)CC[C@]5(C)[C@H]4CC[C@]3(C)NC2=O)cc(OC)c1OC	63 µM	21.7 µM	> 82.1 µM	> 65.3 µM	> 59.9 µM	> 65.2 µM	> 100 µM	> 71.5 µM	> 100 µM	38.1 µM	> 86.5 µM	–	–
CCOC(=O)N/N=C(/N)c1cccc([N+](=O)[O-])c1	> 100 µM	> 100 µM	> 100 µM	> 100 µM	> 100 µM	> 100 µM	> 100 µM	> 100 µM	> 100 µM	> 100 µM	> 100 µM	–	–
O=C1/C(=C/c2ccc([N+](=O)[O-])cc2)C(=O)N(c2ccccc2)C1c1ccccc1 (stereo not drawn)	> 10 µM	> 10 µM	> 10 µM	> 10 µM	> 10 µM	> 10 µM	> 10 µM	> 10 µM	> 10 µM	> 10 µM	> 10 µM	–	–
Cc1ccc(N=Nc2c(O)ccc3cc(S(=O)(=O)O)cc(S(=O)(=O)O)c23)cc1	> 100 µM	> 100 µM	> 100 µM	> 100 µM	> 100 µM	> 100 µM	> 100 µM	> 100 µM	> 100 µM	> 100 µM	> 100 µM	–	–
CSc1ccc2c(cc1=O)[C@@H](NC(=O)c1ccc(N)cc1)CCc1cc(O)c(O)c(O)c1-2	38.2 µM and 52.3 µM	42.5 µM and 50.5 µM	> 100 µM	39.2 µM and 46.1 µM	> 75 µM and 53.2 µM	57.3 µM and 61.6 µM	> 100 µM	> 100 µM	> 100 µM	> 100 µM	34.1 µM and 54 µM	24.2 µM and > 100 µM	> 75 µM and 25.8 µM
Oc1c(CN2CCOCC2)ccc2cccnc12	8.26 µM	7.81 µM	> 10 µM	> 10 µM	> 10 µM	6.6 µM	> 10 µM	> 10 µM	7.56 µM	> 10 µM	> 10 µM	–	–
Cc1ccc2c(c1)C(C(=O)N[C@@H]1C(=O)N3[C@@H]1SC(C)(C)[C@@H]3C(=O)O)OCCC2 (stereo partly drawn)	> 100 µM	> 100 µM	> 100 µM	> 100 µM	> 100 µM	> 100 µM	> 100 µM	> 100 µM	> 100 µM	> 100 µM	> 100 µM	–	–
Oc1ccc(-c2nc(-c3cccnc3)c(-c3ccc(Cl)cc3)[nH]2)cc1	29 µM	23.8 µM	26.3 µM	27.3 µM	43.3 µM	36.9 µM	32.1 µM	29.6 µM	17.9 µM	23 µM	23.3 µM	–	–
COC(CNC(=O)C(C)NC(=O)CCc1ccccc1)OC (stereo not drawn)	> 100 µM	> 100 µM	> 100 µM	> 100 µM	> 100 µM	> 100 µM	> 100 µM	> 100 µM	> 100 µM	> 100 µM	> 100 µM	–	–
COC1=C(OC)C(=O)C(Cc2c(C)nc3sc(C)cn23)=C(C)C1=O	31.2 µM	70.6 µM	35.6 µM	43.7 µM	37.4 µM	36.7 µM	29.9 µM	26.1 µM	53.7 µM	32.2 µM	23.1 µM	–	–
COc1cc(CNCc2cc(OC)c(OC)c(OC)c2)cc(OC)c1OC	> 10 µM	> 6.46 µM	> 10 µM	> 10 µM	> 10 µM	> 10 µM	> 10 µM	> 10 µM	5.86 µM	> 10 µM	> 10 µM	–	–
Cc1ccc(/C=C2\CCCc3ccccc3C2=O)cc1	54.1 µM	27.8 µM	> 100 µM	16.6 µM	> 100 µM	99.3 µM	> 100 µM	> 100 µM	36.5 µM	49.2 µM	> 100 µM	–	–
O=Cc1ccc(OCc2cccc(COc3ccc(/C=N\Nc4ccc([N+](=O)[O-])cc4[N+](=O)[O-])cc3)n2)cc1	> 100 µM	> 100 µM	> 100 µM	> 100 µM	> 100 µM	> 100 µM	> 100 µM	> 100 µM	> 100 µM	> 100 µM	> 100 µM	–	–
